Here are results for 1 compound from article PMC6312359, “Diisopropylphenyl-imidazole (DII): A new compound that exerts anthelmintic activity through novel molecular mechanisms” (PLoS Neglected Tropical Diseases, 2018).

“Also recorded” adds a separate entry of the source.

Series [1] deals with C. elegans. Kind of series: Recovery assays. The format is in vivo, Caenorhabditis elegans. As to conditions: 600 μM, 4 and 8 h of exposure, scored 24 h later. The protocol:
To evaluate the recovery capacity of worms treated with DII, ~100 L4 worms were transferred to NGM plates containing DII (600 μM). After 4 and 8 h of exposure, those animals that survived were transferred to regular NGM plates. Worm viability was scored 24 h later. Results are expressed as the percentage of alive animals 24 h after being transferred to regular NGM plates. The experiment was independently repeated three times.

Series [2] relates to C. elegans. The experiment in a line: Pharyngeal pumping. It counts as in vivo, Caenorhabditis elegans. As to conditions: wild-type and unc-29 young adults, two hours of exposure; listed as DII. The protocol:
Supplementary file pntd.0007021.s006.tif: S6 Fig DII effects on pharyngeal pumping. Wild-type and unc-29 young adult worms (24 h past L4) were transferred to bacteria-seeded NGM plates containing different DII concentrations. After two hours of DII exposure, the number of contractions in the terminal bulb of the pharynx (pumps per minute) was counted using a stereomicroscope at 50x magnification. […] Bars represent the mean ± SEM from n = 20 animals per condition. Statistical differences compared to the non-treated condition (0 μM DII) within the same strain (ns: no statistically significant p>0.05, ***p<0.001). (TIF) Click here for additional data file.

For series [3], the system named is C. elegans mutant strains. The experiment in a line: DII nematicidal effect on mutant strains. The format is in vivo, Caenorhabditis elegans. The protocol: To evaluate DII nematicidal effects on mutant strains two different conditions were tested: i) ~40 L4s were exposed to DII (600 μM) in NGM plates and survival was scored at 4, 8, 24, 48 and 72 h, ii) ~40 L4s were exposed to 50 μM for 96 h and survival was subsequently scored. […] At least three independent experiments were analyzed.

Series [4] deals with Drosophila melanogaster. The experiment in a line: Drosophila melanogaster larval viability. As to conditions: 300–1200 μM in food, about 40 h of exposure. The format is in vivo. The protocol:
All experiments were done at 25°C, under a 12:12 dark:light cycle using the w^1118 strain. Mated females were allowed to lay eggs for 4 h on apple juice egg laying plates supplemented with a thin layer of normal fly food. 2 h after the initiation of egg laying was considered time "0". 30–40 late L2 larvae (66 h after egg laying) were transferred from the plates to tubes containing 3 ml of fly food with 300, 600 and 1200 μM DII or the corresponding concentration of dimethylsulfoxide (DMSO, molecular biology grade, AppliChem). Under these conditions, larvae were exposed to DII until they left the food to pupariate about 40 h later. Larval viability was calculated as the percentage of larvae that reached the pupal stage.
To add drugs, fly food was melted and cooled to 60°C, 3 ml of food were dispensed in tubes and an appropriate volume of DMSO or drug was added and thoroughly mixed. Control tubes without DMSO and […] were prepared following the same procedure. The experiment was independently repeated at least three times.

The test system of series [5] is C. elegans. The experiment in a line: Body length measurements. It counts as in vivo, Caenorhabditis elegans. As to conditions: 600 μM, 2 h. The protocol: Vehicle (0.75% DMSO) was used as a control. After 2 h, images were acquired and body length was measured using FIJI-ImageJ software. At least three independent experiments were analyzed.
In series [6] the test system is C. elegans. The experiment in a line: Worm cut preparation paralysis. It counts as in vivo, Caenorhabditis elegans. As to conditions: 10 min; DII 600 μM, levamisole 10 μM; listed as DII. The protocol: Cutworm assays were performed as previously described with slight modifications. Briefly, synchronized young adult animals were mounted in a glass microscope slide containing Artificial Perienteric Fluid (APF) (67 mM NaCl, 67 mM NaCH3COOH, 3 mM KCl, 15.7 mM MgCl2, 3 mM CaCl2 and 5 mM Tris, pH 7.6). 10 animals were severed between the middle and tail, approximately two-thirds from the anterior end. Worms were subsequently transferred to a multi-well plate containing APF or drug-APF and paralysis was evaluated after 10 minutes. All experiments were performed at least three times.

Series [7] relates to C. elegans. The experiment in a line: Larvicidal activity assays.
Procedure: Three concentrations of drugs were used (100, 300 and 600 μM) and each concentration was repeated in triplicate. After 24, 48 and 72 h alive worms were scored and the results were expressed as the percentage of living worms related to the initial number of L1 animals. This experiment was independently repeated three times.
Series [8] has as its system C. elegans. Kind of series: Screening imidazole compounds: worm survival. It counts as in vivo, Caenorhabditis elegans. As to conditions: 150 μg/ml, 72 h, 20°C, young adult wild-type worms, liquid medium (S-Basal) with E. coli OP50. The protocol:
100–150 young adult wild-type worms were exposed to these compounds (150 μg/ml) in liquid medium (S-Basal) containing E. coli OP50. Micromolar concentrations for each compound are: 487 μM for 1, 428 μM for 2, 410 μM for 3, 375 μM for 4, 789 μM for 5, 735 μM for 6, 389 μM for 7, 319 μM for 8, 263 μM for 9, 806 μM for 10 and 657 μM for 11. Compounds were dissolved in water or DMSO according to their solubility. After 72 h, animal survival was analyzed. An animal was considered dead if it made no movement in response to gentle prodding with a worm pick. At least three independent experiments were analyzed.
We exposed 100–150 young adult worms to these compounds in liquid medium (S-Basal) containing the bacteria E. coli OP50 as a food source. After 72 h at 20°C, we analyzed worm survival (Fig 1B). […] The drug concentration chosen for this screening was 150 μg/ml, which is similar to those used in other screening studies. The corresponding molar concentration for each compound is detailed in Materials and Methods. Depending on their solubility properties, the compounds were dissolved either in water or DMSO (up to 0.75% final concentration).

In series [9] the test system is C. elegans. The experiment in a line: Acute paralysis assays. It counts as in vivo, Caenorhabditis elegans. As to conditions: 10 min. The protocol: Acute paralysis assays were carried out in microtiter plates containing the drug dissolved in M9 buffer. […] Each drug concentration was tested in two wells (containing 30 animals each) within a single experiment. […] The experiment was independently repeated at least three times.

Setting [10] is: 600 μM, short exposure times, no difference after 48 h.

For `CC(C)c1cccc(C(C)C)c1-n1ccnc1` [Compound 11], the “recovery of survivors after transfer to regular NGM plates” value in series [1] is “reversible”. In addition, in [2], the pharyngeal pumping rate result is “inhibits the pharyngeal pumping; also recorded: decreases pharyngeal pumping rate”. In addition, the “survival of unc-29 null mutant strain, long exposure” value in series [3] (50 μM, 96 h) was “resistant”. Besides, in series [3] (600 μM, 4-72 h), the “survival of lev-8 mutants vs wild-type” value was “as sensitive to DII as the wild-type” and the “survival of unc-63 mutants vs wild-type” value is on record as “as sensitive to DII as the wild-type”. Also, in [3] (setting [10]), the “survival of lev-1 mutants vs wild-type” value was “slightly resistant” and the “survival of unc-38 mutants vs wild-type” value is recorded as “slightly resistant”. In addition, the “survival of unc-29(e1072)I null mutants vs wild-type” value in [3] (CB1072, 600 μM, 4-72 h, listed as DII) is given as “extremely resistant”. Besides, the “DII-mediated death in muscle unc-29 rescue strain OAR61” value in series [3] (myo-3::unc-29, unc-29(e1072)I, 600 μM) is “completely restores”. Also, the “larval viability (larvae that reached the pupal stage)” value in [4] was “does not affect Drosophila larval viability”. For the same compound, the body length entry in [5] is on record as “no significant changes”. For the same compound, the “paralysis in cut specimens” value in series [6] was “unable to induce paralysis; also recorded: fail to produce significant paralysis”. Further, in [7] (600 μM), the “larvicidal effect on unc-29 null mutant larvae” value is “as sensitive to the larvicidal effects of DII as the wild-type strain”. In addition, the “larvicidal effect on unc-38, unc-63, lev-8 and lev-1 larvae” value in [7] (600 μM, 24, 48 and 72 h) is on record as “sensitive to DII”. Also, the “larval viability, wild-type L1” value in [7] (100, 300 and 600 μM, 24, 48 and 72 h) is on record as “significant decrease”. This compound also showed a worm death in [8] of 100%. The “paralysis in CB407 unc-49(e407)III hypersensitive strain” value in series [9] (100 μM) is recorded as “no paralyzing effects”. The compound further came in with an immobilized animals in [9] (800 μM (highest concentration tested)) of 25%. Also, the “change of the dose-effect curve of levamisole by DII” value in series [9] (DII 100 and 200 μM, intact animals) is recorded as “no significant changes”.
